Assay results published in PubChem BioAssay AID1963875 (Molecular Pharmacology Branch, DTP, NCI, 2024).

System: KRAS-mutant PDC complex spheroid viability
Assay: Anticancer human tumor 186277-243-T-J2-PDC patient-derived colon adenocarcinoma cell line growth inhibition [KRAS2]
Details: for IC50: curve of first compound; for viability, T/C: stronger effect = lower value
Description: Multicellular complex tumor spheroid response to RAS pathway inhibitors in combination with a targeted agents in patient-derived cell lines with oncogenic KRAS variants from multiple cancer types
A high-throughput screen of multi-cell type tumor spheroids was designed to identify active combinations of targeted small molecules and KRAS pathway inhibitors. Complex spheroids include a stromal component modeled by human endothelial cells (HUVEC) and fibroblasts modeled by human mesenchymal stem cells (MSCs). The concentration ranges selected for each drug and investigational agent were based upon clinically achievable concentrations if the clinical Cmax of the agent was known.
Compounds. The drugs and investigational agents: BI-3406 (NSC825286), BAY-293 (NSC824723), batoprotafib (TNO155; NSC825523), sotorasib (AMG 510; NSC818433), MRTX1257 (NSC819558), elimusertib (BAY 1895344; NSC800525), molibresib (GSK525762; NSC774829), temuterkib (LY3214996; NSC803410), venetoclax (NSC766270), alisertib (NSC759677), olaparib (NSC753686), talazoparib (NSC767125), erdafitinib (NSC781556), ipatasertib (NSC767898), cabozantinib (NSC761068), nintedanib (NSC756659), abemaciclib (NSC768073), docetaxel (NSC628503), trametinib (NSC758246), and sapanisertib (NSC764658) were obtained from the National Cancer Institute (NCI) Developmental Therapeutics Program Chemical Repository. The FDA-approved anticancer drug set is available from the Developmental Therapeutics Program. […] The stock solutions were prepared in dimethyl sulfoxide (DMSO, Sigma-Aldrich, St. Louis, MO, cat. D2650) at 800-fold the tested concentration and stored at -70 degrees C prior to their use. All drugs and investigational agents were tested over a range starting from a high concentration at or near the clinical Cmax and decreasing in half-log increments. If the clinical Cmax for an agent had not been determined, the highest concentration tested was 10 microM.
Cell Culture. All cells were maintained in an incubator at 37 degrees C and 5% CO2 with 95% humidity. The PDC lines were cultured according to standard operating procedures established by the NCI PDMR (https://pdmr.cancer.gov/sops/default.htm). Briefly, all PDCs were thawed and cultured in Matrigel-coated flasks prepared with a working solution of 1X Ham's F-12 nutrient mix, without supplementation (Invitrogen, Waltham, MA, cat. 11765054), 100 U/mL penicillin-streptomycin (Invitrogen, cat. 15140122), and 2.5% Matrigel (Corning Inc., Corning, NY, cat. 354248) for the first three passages. All PDCs were cultured in complete DMEM/F-12 media containing advanced DMEM/F-12 (Invitrogen, cat. 12634028), 4.9% defined fetal bovine serum, heat inactivated (HyClone Laboratories Inc., Logan, UT, cat. SH30070.03HI), 389 ng/mL hydrocortisone (Sigma-Aldrich, cat. H4001), 9.7 ng/mL human EGF recombinant protein (Invitrogen, cat. PHG0313), 23.4 microg/mL adenine (Sigma-Aldrich, cat. A2786), 97.3 U/mL penicillin-streptomycin (Invitrogen, cat. 15140122), 1.9 mM L-glutamine (Invitrogen, cat. 25030081), and 9.7 microM Y-27632 dihydrochloride (Tocris Bioscience, Bristol, United Kingdom, cat. 1254). The PDCs were cultured in complete DMEM/F12 media without 9.7 microM Y-27632 dihydrochloride for at least two passages prior to the screen. The established cell line HOP-62 was cultured in RPMI 1640 medium, HEPES (Invitrogen, cat. 22400105) with 10% defined fetal bovine serum (HyClone Laboratories Inc., cat. SH30070.03) and 2 mM L-glutamine (Invitrogen, cat. 25030081). The pooled donor HUVEC were cultured in endothelial cell growth medium 2 (PromoCell, Heidelberg, Germany, cat. C-22011) and the hMSC were cultured in mesenchymal stem cell growth medium 2 (PromoCell, cat. C-28009). For all experiments, HUVEC and hMSC were used at passages </=5, while the malignant cell lines were used at passages </=15. […]

[1] = second compound 0.1 µM, first compound 0.0316 µM
[2] = second compound 0.1 µM, first compound 0.1 µM
[3] = second compound 0.316 µM, first compound 0.0316 µM
[4] = second compound 0.316 µM, first compound 0.1 µM
[5] = second compound 1 µM, first compound 0.0316 µM
[6] = second compound 1 µM, first compound 0.1 µM
[7] = second compound 3.16 µM, first compound 0.0316 µM
[8] = second compound 3.16 µM, first compound 0.1 µM
[9] = second compound 10 µM, first compound 0.0316 µM
[10] = second compound 10 µM, first compound 0.1 µM
[11] = second compound 0.1 µM, first compound 0.316 µM
[12] = second compound 0.1 µM, first compound 1 µM
[13] = second compound 0.1 µM, first compound 3.16 µM
[14] = second compound 0.1 µM, first compound 10 µM
[15] = second compound 0.316 µM, first compound 0.316 µM
[16] = second compound 0.316 µM, first compound 1 µM
[17] = second compound 0.316 µM, first compound 3.16 µM
[18] = second compound 0.316 µM, first compound 10 µM
[19] = second compound 1 µM, first compound 0.316 µM
[20] = second compound 1 µM, first compound 1 µM
[21] = second compound 1 µM, first compound 3.16 µM
[22] = second compound 1 µM, first compound 10 µM
[23] = second compound 3.16 µM, first compound 0.316 µM
[24] = second compound 3.16 µM, first compound 1 µM
[25] = second compound 3.16 µM, first compound 3.16 µM
[26] = second compound 3.16 µM, first compound 10 µM
[27] = second compound 10 µM, first compound 0.316 µM
[28] = second compound 10 µM, first compound 1 µM
[29] = second compound 10 µM, first compound 3.16 µM
[30] = second compound 10 µM, first compound 10 µM
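For viability, T/C in this document: viability read after seven days of compound exposure; 100% = DMSO vehicle-treated spheroids so lower means less viable.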

For `CC(C)n1nc(-c2ccc3oc(N)nc3c2)c2c(N)ncnc21` + C=CC(=O)N1CCN(c2nc(=O)n(-c3c(C)ccnc3C(C)C)c3nc(-c4c(O)cccc4F)c(F)cc23)C(C)C1, the IC50 (second compound 0.1 µM) was 12.6 nM, the IC50 (second compound 0.316 µM) was 17.6 nM and the IC50 (second compound 1 µM) was 9.05 nM. For the same compound, the IC50 (second compound 3.16 µM) was 4.66 nM, the IC50 (second compound 10 µM) was < 0.316 nM and the viability, T/C (second compound 0.1 µM, first compound 0.000316 µM) was 94.8%. For the same compound, the viability, T/C (second compound 0.1 µM, first compound 0.001 µM) was 93.1%, the viability, T/C (second compound 0.1 µM, first compound 0.00316 µM) was 86.1% and the viability, T/C (second compound 0.1 µM, first compound 0.01 µM) was 52.6%. It also gave a viability, T/C [1] of 32.7%, a viability, T/C [2] of 19.5% and a viability, T/C (second compound 0.316 µM, first compound 0.000316 µM) of 113%. The viability, T/C (second compound 0.316 µM, first compound 0.001 µM) was 103%, the viability, T/C (second compound 0.316 µM, first compound 0.00316 µM) was 87.7% and the viability, T/C (second compound 0.316 µM, first compound 0.01 µM) was 65.6%. The viability, T/C [3] was 34.2%, the viability, T/C [4] was 18.9% and the viability, T/C (second compound 1 µM, first compound 0.000316 µM) was 97.5%. For the same compound, the viability, T/C (second compound 1 µM, first compound 0.001 µM) was 107%, the viability, T/C (second compound 1 µM, first compound 0.00316 µM) was 75.8% and the viability, T/C (second compound 1 µM, first compound 0.01 µM) was 48.9%. It also gave a viability, T/C [5] of 27.3%, a viability, T/C [6] of 20.1% and a viability, T/C (second compound 3.16 µM, first compound 0.000316 µM) of 98%. The viability, T/C (second compound 3.16 µM, first compound 0.001 µM) was 89.4%, the viability, T/C (second compound 3.16 µM, first compound 0.00316 µM) was 58.6% and the viability, T/C (second compound 3.16 µM, first compound 0.01 µM) was 31.1%. The viability, T/C [7] was 20.1%, the viability, T/C [8] was 13.9% and the viability, T/C (second compound 10 µM, first compound 0.000316 µM) was 45.9%. It also gave a viability, T/C (second compound 10 µM, first compound 0.001 µM) of 44.6%, a viability, T/C (second compound 10 µM, first compound 0.00316 µM) of 34.7% and a viability, T/C (second compound 10 µM, first compound 0.01 µM) of 16.9%. The viability, T/C [9] was 14.7% and the viability, T/C [10] was 7.97%.
`CC1(C)CCC(CN2CCN(c3ccc(C(=O)NS(=O)(=O)c4ccc(NCC5CCOCC5)c([N+](=O)[O-])c4)c(Oc4cnc5[nH]ccc5c4)c3)CC2)=C(c2ccc(Cl)cc2)C1` + C=CC(=O)N1CCN(c2nc(=O)n(-c3c(C)ccnc3C(C)C)c3nc(-c4c(O)cccc4F)c(F)cc23)C(C)C1 gave an IC50 (second compound 0.1 µM) of 1890 nM, an IC50 (second compound 0.316 µM) of 2100 nM and an IC50 (second compound 1 µM) of 1950 nM. It also gave an IC50 (second compound 3.16 µM) of 1690 nM, an IC50 (second compound 10 µM) of 373 nM and a viability, T/C [1] of 107%. The viability, T/C [2] was 89.6%, the viability, T/C [11] was 90.8% and the viability, T/C [12] was 108%. The viability, T/C [13] was 10.6%, the viability, T/C [14] was 0.45% and the viability, T/C [3] was 97.7%. For the same compound, the viability, T/C [4] was 104%, the viability, T/C [15] was 102% and the viability, T/C [16] was 98.5%. It also gave a viability, T/C [17] of 23.3%, a viability, T/C [18] of 1.48% and a viability, T/C [5] of 97.8%. The viability, T/C [6] was 97.9%, the viability, T/C [19] was 94.1% and the viability, T/C [20] was 106%. For the same compound, the viability, T/C [21] was 14.3%, the viability, T/C [22] was 0.49% and the viability, T/C [7] was 99.9%. For the same compound, the viability, T/C [8] was 110%, the viability, T/C [23] was 96.7% and the viability, T/C [24] was 85%. For the same compound, the viability, T/C [25] was 8.01%, the viability, T/C [26] was 0.76% and the viability, T/C [9] was 61.1%. For the same compound, the viability, T/C [10] was 69.4%, the viability, T/C [27] was 48.6% and the viability, T/C [28] was 32%. For the same compound, the viability, T/C [29] was 1.91% and the viability, T/C [30] was 0.62%.
`COc1cc2nccc(Oc3ccc(NC(=O)C4(C(=O)Nc5ccc(F)cc5)CC4)cc3)c2cc1OC` + C=CC(=O)N1CCN(c2nc(=O)n(-c3c(C)ccnc3C(C)C)c3nc(-c4c(O)cccc4F)c(F)cc23)C(C)C1 showed an IC50 (second compound 0.1 µM) of 1880 nM, an IC50 (second compound 0.316 µM) of 1770 nM and an IC50 (second compound 1 µM) of 1320 nM. It also gave an IC50 (second compound 3.16 µM) of 823 nM, an IC50 (second compound 10 µM) of 101 nM and a viability, T/C [1] of 95.2%. It also gave a viability, T/C [2] of 94.8%, a viability, T/C [11] of 100% and a viability, T/C [12] of 93.7%. The viability, T/C [13] was 13.1%, the viability, T/C [14] was 15.4% and the viability, T/C [3] was 93%. It also gave a viability, T/C [4] of 85.5%, a viability, T/C [15] of 98.2% and a viability, T/C [16] of 86.1%. For the same compound, the viability, T/C [17] was 12.3%, the viability, T/C [18] was 14% and the viability, T/C [5] was 98%. For the same compound, the viability, T/C [6] was 92.4%, the viability, T/C [19] was 101% and the viability, T/C [20] was 61.8%. It also gave a viability, T/C [21] of 12.4%, a viability, T/C [22] of 13.7% and a viability, T/C [7] of 94.5%. The viability, T/C [8] was 103%, the viability, T/C [23] was 91.2% and the viability, T/C [24] was 41.8%. It also gave a viability, T/C [25] of 9.95%, a viability, T/C [26] of 11.2% and a viability, T/C [9] of 49.9%. The viability, T/C [10] was 52.7%, the viability, T/C [27] was 32.3% and the viability, T/C [28] was 9.14%. It also gave a viability, T/C [29] of 2.99% and a viability, T/C [30] of 3.53%.
